# In patent US9029378B2, “Substituted bicyclic aromatic carboxamide and urea compounds as vanilloid receptor ligands” (Gruenenthal GmbH, priority 2011, dated 2015):
# Molecular target: T1, vanilloid receptor 1 (VR1/TRPV1 receptor) (Homo sapiens, UniProt Q8NER1)
# T1 construct: expressed in transfected cells; host or cells: CHO K1
# Experiment: Functional testing on the vanilloid receptor 1 (FLIPR Ca2+ influx assay, capsaicin)
# Type: cell-based, human being
# Details: @1 μM; Cap=capsaicin; read-out: inhibition (as a percentage), (f) (human being) Cap
# Procedure: Furthermore, preference may be given to compounds according to the invention that cause a 50 percent displacement of capsaicin, which is present at a concentration of 100 nM, in a FLIPR assay with CHO K1 cells which were transfected with the human VR1 gene at a concentration of less than 2,000 nM, preferably less than 1,000 nM, particularly preferably less than 300 nM, most particularly preferably less than 100 nM, even more preferably less than 75 nM, additionally preferably less than 50 nM, most preferably less than 10 nM.
# In the process, the Ca^2+ influx is quantified in the FLIPR assay with the aid of a Ca^2+-sensitive dye (type Fluo-4, Molecular Probes Europe BV, Leiden, the Netherlands) in a fluorescent imaging plate reader (FLIPR, Molecular Devices, Sunnyvale, USA), as described hereinafter.
# Pharmacological Methods I. Functional Testing Carried Out on the Vanilloid Receptor 1 (VR1/TRPV1 Receptor) […]
# The number of cells in the suspension is set to 3×10^5 per mL and 150 μL of this suspension are in each case introduced into a recess in the cell culture plates coated as described hereinbefore. In the incubator the plates are left for two to three days at 37° C., 5% by volume of CO2 and 95% relative humidity. Subsequently, the cells are loaded with 2 μM of Fluo-4 and 0.01% by volume of Pluronic F127 (Molecular Probes Europe BV, Leiden, the Netherlands) in HBSS buffer (Hank's buffered saline solution, Gibco Invitrogen GmbH, Karlsruhe, Germany) for 30 min at 37° C., washed 3 times with HBSS buffer and after further incubation for 15 minutes at room temperature used for Ca^2+ measurement in a FLIPR assay. The Ca^2+-dependent fluorescence is in this case measured before and after the addition of substances (λex=488 nm, λem=540 nm). Quantification is carried out by measuring the highest fluorescence intensity (FC, fluorescence counts) over time.
# The FLIPR protocol consists of 2 substance additions. First the compounds to be tested (10 μM) are pipetted onto the cells and the Ca^2+ influx is compared with the control (capsaicin 10 μM). This provides the result in % activation based on the Ca^2+ signal after the addition of 10 μM of capsaicin (CP). After 5 minutes' incubation, 100 nM of capsaicin are applied and the Ca^2+ influx is also determined.
# Desensitising agonists and antagonists lead to suppression of the Ca^2+ influx. The % inhibition is calculated compared to the maximum achievable inhibition with 10 μM of capsazepine. Triple analyses (n=3) are carried out and repeated in at least 3 independent experiments (N=4). Starting from the percentage displacement caused by different concentrations of the compounds to be tested of general formula I, IC50 inhibitory concentrations which cause a 50-percent displacement of capsaicin were calculated. Ki values for the test substances were obtained by conversion by means of the Cheng-Prusoff equation (Cheng, Prusoff; Biochem. Pharmacol. 22, 3099-3108, 1973).
# The affinity of the compounds of to the invention for the vanilloid receptor 1 (VR1/TRPV1 receptor) was determined as described hereinbefore (pharmacological method I). The compounds of the invention display outstanding affinity to the VR1/TRPV1 receptor (Table 2). In Table 2 the abbreviations below have the following meanings: • Cap=capsaicin • AG=agonist • NE=no effect
# The value after the “@” symbol indicates the concentration at which the inhibition (as a percentage) was respectively determined.
# T1 sequence (Q8NER1 whole entry): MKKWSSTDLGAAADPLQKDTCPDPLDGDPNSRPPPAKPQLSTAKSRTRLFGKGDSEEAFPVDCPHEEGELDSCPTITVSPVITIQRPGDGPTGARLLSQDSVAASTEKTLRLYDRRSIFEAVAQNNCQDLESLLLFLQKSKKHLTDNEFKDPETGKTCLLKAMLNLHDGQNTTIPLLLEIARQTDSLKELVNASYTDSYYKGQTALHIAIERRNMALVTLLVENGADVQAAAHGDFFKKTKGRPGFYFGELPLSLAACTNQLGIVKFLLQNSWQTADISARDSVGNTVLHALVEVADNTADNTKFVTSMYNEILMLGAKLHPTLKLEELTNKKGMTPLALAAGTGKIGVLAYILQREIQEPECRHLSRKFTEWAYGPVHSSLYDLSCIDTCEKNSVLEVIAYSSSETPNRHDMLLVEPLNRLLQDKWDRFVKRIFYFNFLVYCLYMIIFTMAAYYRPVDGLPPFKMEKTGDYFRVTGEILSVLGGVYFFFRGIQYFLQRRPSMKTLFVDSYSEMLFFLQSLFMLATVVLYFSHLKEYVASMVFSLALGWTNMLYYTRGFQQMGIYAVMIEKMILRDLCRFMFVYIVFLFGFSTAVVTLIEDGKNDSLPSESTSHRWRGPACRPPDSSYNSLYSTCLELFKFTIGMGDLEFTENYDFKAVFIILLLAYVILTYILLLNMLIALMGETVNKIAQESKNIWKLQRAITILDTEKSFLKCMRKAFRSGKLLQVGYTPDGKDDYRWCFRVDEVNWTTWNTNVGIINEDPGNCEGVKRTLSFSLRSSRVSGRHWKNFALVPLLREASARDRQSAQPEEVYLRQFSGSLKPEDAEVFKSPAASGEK
row,inhibition at 1 µM [%],Compound
1,40,"CC1CCN(c2nc(C(F)(F)F)ccc2CNC(=O)Nc2ccc3ncccc3c2)CC1 [Example 69, 1-((2-(4-Methylpiperidin-1-yl)-6-(trifluoromethyl)pyridin-3-yl)methyl)-3-(quinolin-6-yl)urea]"

# Same assay, conditions: @5 μM; Cap=capsaicin; read-out: inhibition (as a percentage), (f) (human being) Cap
row,inhibition at 5 µM [%],Compound
1,24,"Cc1ccc2cccc(NC(=O)NCc3ccc(C(C)(C)C)cc3N3CCC(C)CC3)c2n1 [Example 74, 1-(4-Tert-butyl-2-(4-methylpiperidin-1-yl)benzyl)-3-(2-methylquinolin-8-yl)urea]"

# Same assay, conditions: Cap=capsaicin (100 nM); Ki from IC50 by Cheng-Prusoff equation; read-out: (f) Ki (human being) [nM] Cap
row,Ki [nM],Compound
1,68,"Cc1ccc2cc(NC(=O)NCc3ccc(C(F)(F)F)nc3N3CCC(C)CC3)ccc2n1 [Example 70, 1-((2-(4-Methylpiperidin-1-yl)-6-(trifluoromethyl)pyridin-3-yl)methyl)-3-(2-methylquinolin-6-yl)urea]"
2,24,"Cc1ccc2cccc(NC(=O)NCc3ccc(C(F)(F)F)nc3N3CCC(C)CC3)c2n1 [Example 73, 1-((2-(4-Methylpiperidin-1-yl)-6-(trifluoromethyl)pyridin-3-yl)methyl)-3-(2-methylquinolin-8-yl)urea]"
3,0.8,"CC1CCN(c2nc(C(F)(F)F)ccc2CNC(=O)Nc2cccc3c(Cl)nccc23)CC1 [Example 79, 1-(1-Chloroisoquinolin-5-yl)-3-((2-(4-methylpiperidin-1-yl)-6-(trifluoromethyl)pyridin-3-yl)methyl)urea]"
4,1,"COc1nc(Cl)cc2c(NC(=O)NCc3ccc(C(F)(F)F)nc3N3CCC(C)CC3)cccc12 [Example 82, 1-(3-Chloro-1-methoxyisoquinolin-5-yl)-3-((2-(4-methylpiperidin-1-yl)-6-(trifluoromethyl)pyridin-3-yl)methyl)urea]"
5,7,"CC1CCN(c2nc(C(F)(F)F)ccc2CNC(=O)Nc2ccc3cnccc3c2)CC1 [Example 83, 1-(Isoquinolin-6-yl)-3-((2-(4-methylpiperidin-1-yl)-6-(trifluoromethyl)pyridin-3-yl)methyl)urea]"

# The remaining lines, values behind:
row,Compound,Ki [nM]
1,"O=C(NCc1ccc(C(F)(F)F)nc1OC1CCC1)Nc1cccc2ncccc12 [Example 68, 1-((2-Cyclobutoxy-6-(trifluoromethyl)pyridin-3-yl)methyl)-3-(quinolin-5-yl)urea]",2
2,"O=C(NCc1ccc(C(F)(F)F)nc1SC1CCCCC1)Nc1ccc2cccnc2c1 [Example 71, 1-((2-(Cyclohexylthio)-6-(trifluoromethyl)pyridin-3-yl)methyl)-3-(quinolin-7-yl)urea]",5
3,"CC1CCN(c2nc(C(C)(C)C)ccc2CNC(=O)Nc2cccc3cnccc23)CC1 [Example 76, 1-((6-Tert-butyl-2-(4-methylpiperidin-1-yl)pyridin-3-yl)methyl)-3-(isoquinolin-5-yl)urea]",0.1
4,"CN(C)C1(c2ccccc2)CCN(c2nc(C(F)(F)F)ccc2CNC(=O)Nc2cccc3cnccc23)CC1 [Example 77, 1-((2-(4-(Dimethylamino)-4-phenylpiperidin-1-yl)-6-(trifluoromethyl)pyridin-3-yl)methyl)-3-(isoquinolin-5-yl)urea]",4
5,"Cc1nccc2c(NC(=O)NCc3ccc(C(F)(F)F)nc3N3CCC(C)CC3)cccc12 [Example 78, 1-(1-Methylisoquinolin-5-yl)-3-((2-(4-methylpiperidin-1-yl)-6-(trifluoromethyl)pyridin-3-yl)methyl)urea]",1
6,"COc1nccc2c(NC(=O)NCc3ccc(C(F)(F)F)nc3N3CCC(C)CC3)cccc12 [Example 80, 1-(1-Methoxyisoquinolin-5-yl)-3-((2-(4-methylpiperidin-1-yl)-6-(trifluoromethyl)pyridin-3-yl)methyl)urea]",8
7,"CC1CCN(c2nc(C(F)(F)F)ccc2CNC(=O)Nc2ccc3ccncc3c2)CC1 [Example 84, 1-(Isoquinolin-7-yl)-3-((2-(4-methylpiperidin-1-yl)-6-(trifluoromethyl)pyridin-3-yl)methyl)urea]",8
8,"O=C(NCc1ccc(C(F)(F)F)nc1SC1CCCCC1)Nc1cccc2ccncc12 [Example 85, 1-((2-(Cyclohexylthio)-6-(trifluoromethyl)pyridin-3-yl)methyl)-3-(isoquinolin-8-yl)urea]",1
